The results in this text go back to ChEMBL document CHEMBL1127695, “Rational modification of human synovial fluid phospholipase A2 inhibitors” (J Med Chem, 1994).

The target of test [1] is Phospholipase A2, major isoenzyme (Sus scrofa) (UniProt P00592). The test can be described thus: Tested for the inhibition of porcine pancreatic enzyme. Conditions: concentration not given here.
The target in test [2] is T1, Phospholipase A2, membrane associated (Homo sapiens) (UniProt P14555).
T1 sequence (whole entry): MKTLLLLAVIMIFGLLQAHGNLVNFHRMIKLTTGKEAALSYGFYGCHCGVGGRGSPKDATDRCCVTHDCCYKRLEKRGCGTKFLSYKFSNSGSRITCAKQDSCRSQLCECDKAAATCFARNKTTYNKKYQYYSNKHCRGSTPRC
The test can be described thus: Tested for the inhibition of human synovial fluid enzyme phospholipase A2 (PLA2). To be noted: concentration not given here.

Test [3] deals with T1, Phospholipase A2, membrane associated (Homo sapiens). The test can be described thus: Tested for the inhibition of human synovial fluid phospholipase A2.

Phospholipase A2, major isoenzyme (Sus scrofa), sequence (P00592 23-146 limits assumed): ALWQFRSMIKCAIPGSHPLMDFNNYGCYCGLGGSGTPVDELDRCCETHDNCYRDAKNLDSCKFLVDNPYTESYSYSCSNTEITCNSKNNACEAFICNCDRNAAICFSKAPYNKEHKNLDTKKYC

For `CCCCCCCCCCS(=O)(=O)NC(CCCCCC)COP(=O)(O)OCCO` (stereo not drawn), the inhibition is 43% in test [1] and 66% in test [2].
In turn, `CCCCCCCCOC[C@H](COP(=O)(O)OCCN)OP(=O)(O)CCCCCCC` had an X1(50) (mole fraction) in test [3] of 0.025.

The inhibition is the share of the control response that was lost under treatment.
